# In PMC8589421, “Impact of Type II LRRK2 inhibitors on signaling and mitophagy” (Biochemical Journal, 2021):
# Legend:
# Flag-LRRK2[G2019S] = target: T1, Flag-LRRK2[G2019S] (Homo sapiens, UniProt Q5S007, G2019S); test: IC50 LRRK2 Nictide assay, G2019S; assay type: biochemical; settings: read-out: IC50 LRRK2 G2019S (100 µM ATP), Nictide peptide substrate, value ± SD
# T1 construct: towards full length wild type and G2019S pathogenic LRRK2 mutant in a biochemical assay; Flag (N); purchased ThermoFisher Scientific A15201
# [1] = tested on: basal mitophagy, LRRK2[G2019S] MEFs; test: mito-QC basal mitophagy in LRRK2[G2019S] knock-in primary MEFs; assay type: cell-based, mouse; settings: 24 h, 30–300 nM GZD-824, GSK3357679A 100 nM positive control
# Protocol: (§1) To assess mitophagy, wild type, G2019S knock in, and LRRK2 knock out primary mouse embryonic fibroblasts (MEFs) were derived, from time-mated pregnant females at E12.5 as previously described. Briefly, cells were plated on glass coverslips and incubated with DMEM (Gibco, 11960-044) supplemented with 10% FBS, 2 mM L-Glutamine (Gibco, 2503-081), 1% non-essential amino acids (Gibco, 11140-035), 1% Antibiotics (Penicillin/Streptomycin 100 U/ml penicillin and 100 µg/ml streptomycin; Gibco), and 150 µM β-Mercaptoethanol (Gibco, 21985-023) at 37°C under a humidified 5% CO2 atmosphere. […] GSK3357679A 100 nM (Ding et al., in prep) was used as a positive control. At the end of the treatment, MEFs were briefly washed twice in DPBS (Gibco, 14190-094), and fixed in 3.7% Paraformaldehyde pH 7.00 (Sigma, P6148), 200 mM HEPES, for 20 min. Cells were then washed two times with DMEM, 10 mM HEPES, and then incubated for 10 min with DMEM, 10 mM HEPES. […] Images were acquired using a Nikon Eclipse Ti-S fluorescence microscope with a 63× objective. Images were analyzed using the mito-QC counter as previously described. Experiments were performed in 3–4 independent experiments and data was analyzed with a one-way ANOVA followed by a Dunnett's multiple comparison test using the GraphPad Prism software (version 8.4.3 (686)).
# LRRK2 14-3-3 binding = tested on: T2, LRRK2 14-3-3 binding; test: Analysis of 14-3-3 binding in HEK293 cells overexpressing wild-type LRRK2; assay type: cell-based, human; settings: 5 μM GZD-824 for 4 h, 1 μM GSK3357679A
# T2 construct: host or cells: HEK293
# Protocol: This was undertaken as described previously. Briefly, wild-type FLAG-LRRK2 was transiently expressed in HEK293 cells with HA-Rab29. Twenty-four hours post-transfection cells were lysed with lysis buffer and snap frozen. LRRK2 was immunoprecipitated from 4 mg of lysate using 20 μl anti-FLAG-M2 agarose beads (Sigma, #A2220) for 2 h in rotation at +4°C. Immunoprecipitates were washed once with lysis buffer supplemented with 0.5% (by vol) Nonidet P-40 (instead of Triton X-100) and 0.5 M NaCl followed by two washes. Samples were eluted in 2× LDS sample buffer (20 µl per 10 µl of resin) and heated at 70°C for 10 min. After centrifugation through 0.22 µm Spin X filter, the eluted protein was subjected to immunoblotting with the indicated antibodies. An amount of 10 μl of the final reaction mixture was needed for the detection of binding of endogenous 14-3-3 and 1 µl for detection of LRRK2.
# [2] = tested on: basal mitophagy, LRRK2 knock-out MEFs; test: mito-QC basal mitophagy in LRRK2 knock-out primary MEFs; assay type: cell-based, mouse; settings: 24 h
# Protocol: as §1
# [3] = tested on: Rab29 mediated relocalization of LRRK2 to the Golgi apparatus; test: Rab29 mediated recruitment of LRRK2 to the Golgi, immunofluorescence in HeLa cells; assay type: cell-based, human; settings: 5 μM GZD-824 or 1 μM GSK3357679A for 4 h
# Protocol: HeLa cells were seeded on coverslips and transfected with the plasmid reported in each image 24 h before fixation. Following the treatments with the inhibitors described in figure legends, cells were washed twice in DPBS and fixed with 3.7% Paraformaldehyde pH 7.3 (Agar scientific, #R1026), 200 mM HEPES, for 20 min. Cells were then washed twice with DMEM, 20 mM HEPES, and then incubated for 10 min with DMEM, 10 mM HEPES. After two washes in DPBS, fixed cells were permeabilized with 0.2% (by vol) NP-40 in DPBS for 10 min. Cells were blocked using 1% (by mass) BSA in DPBS, then incubated for 1 h with primary antibodies diluted in 1% (by mass) BSA in DPBS, washed three times in 0.2% (by mass) BSA in DPBS, and incubated for 1 h with secondary antibodies. The coverslips were washed three times with 0.2% (by mass) BSA in PBS. Coverslips were washed once more in double distilled water and mounted on slides (VWR, #631-0909) using ProLong™ Diamond Antifade Mountant (ThermoFisher, #P36961). For localization of the Golgi compartment, Golgin-97 was stained with rabbit anti-GM97 (CST, #D8P2K) and visualized with goat anti-rabbit conjugated to Alexa Fluor 405 (Life Technologies, #P10994). HA-Rab29 was stained with mouse anti-HA (Abcam, clone HA.C5 #ab18181) and visualized with goat anti-mouse conjugated to Alexa Fluor 594 (Life Technologies, #A-11032). […]
# [4] = tested on: Dundee panel of 140 protein kinases; test: Kinase profiling; assay type: biochemical
# Source text: […] Results for each kinase are presented as the mean kinase activity ±S.D. for an assay undertaken in duplicate relative to a control kinase assay in which the inhibitor was omitted. Abbreviations and assay conditions used for each kinase are available (http://www.kinase-screen.mrc.ac.uk/services/premier-screen).
# [5] = tested on: LRRK2 Ser935 phosphorylation; test: Ser935 phosphorylation in HEK293 cells overexpressing wild-type LRRK2; assay type: cell-based, human; settings: 1 μM
# Protocol: Cell extracts were mixed with a quarter of a volume of NuPage LDS Sample buffer 4× Invitrogen and heated at 95°C for 5 min. […] At the end of electrophoresis, proteins were electrophoretically transferred onto the nitrocellulose membrane (GE Healthcare, Amersham Protran Supported 0.45 µm NC) at 100 V for 90 min on ice in the transfer buffer (48 mM Tris–HCl and 39 mM glycine supplemented with 20% methanol). Transferred membrane was blocked with 5% (w/v) skim milk powder dissolved in TBS-T [20 mM Tris–HCl, pH 7.5, 150 mM NaCl and 0.1% (v/v) Tween 20] at room temperature for 1 h. The membrane was typically cropped into three pieces, namely the ‘top piece’ (from the top of the membrane to 75 kDa), the ‘middle piece’ (between 75 and 30 kDa) and the ‘bottom piece’ (from 30 kDa to the bottom of the membrane). All primary antibodies were used at 1 μg/ml final concentration and incubated in TBS-T containing 5% (by mass) bovine serum albumin with exception of α-tubulin and GAPDH antibodies that were diluted 1 : 5000 and 1 : 2000, respectively. The top piece was incubated with the indicated rabbit anti-LRRK2 phosphorylation site antibody multiplexed with mouse anti-LRRK2 C-terminus total antibody. […] Protein bands were acquired via near infrared fluorescent detection using the Odyssey CLx imaging system and quantified using the Image Studio software. […]
# wild-type Flag-LRRK2 = target: T3, wild-type Flag-LRRK2 (Homo sapiens, UniProt Q5S007); test: IC50 LRRK2 Nictide assay, wild type; assay type: biochemical
# T3 construct: Human recombinant full length wild-type Flag-LRRK2 (#A15198); Flag (N); purchased ThermoFisher Scientific A15198
# Protocol: (#A15201) purchased from ThermoFisher Scientific. […] After incubation for 30 min at room temperature, reactions were terminated by harvesting the whole reaction volume onto P81 phosphocellulose filter plate and immersion in 50 mM phosphoric acid. […] IC50 values were calculated with GraphPad Prism using non-linear regression analysis.
# [6] = tested on: basal mitophagy, wild type MEFs; test: mito-QC basal mitophagy in wild-type primary MEFs; assay type: cell-based, mouse; settings: 24 h, 30–300 nM GZD-824, GSK3357679A 100 nM positive control
# Protocol: as §1
# T3 sequence (Q5S007 whole entry): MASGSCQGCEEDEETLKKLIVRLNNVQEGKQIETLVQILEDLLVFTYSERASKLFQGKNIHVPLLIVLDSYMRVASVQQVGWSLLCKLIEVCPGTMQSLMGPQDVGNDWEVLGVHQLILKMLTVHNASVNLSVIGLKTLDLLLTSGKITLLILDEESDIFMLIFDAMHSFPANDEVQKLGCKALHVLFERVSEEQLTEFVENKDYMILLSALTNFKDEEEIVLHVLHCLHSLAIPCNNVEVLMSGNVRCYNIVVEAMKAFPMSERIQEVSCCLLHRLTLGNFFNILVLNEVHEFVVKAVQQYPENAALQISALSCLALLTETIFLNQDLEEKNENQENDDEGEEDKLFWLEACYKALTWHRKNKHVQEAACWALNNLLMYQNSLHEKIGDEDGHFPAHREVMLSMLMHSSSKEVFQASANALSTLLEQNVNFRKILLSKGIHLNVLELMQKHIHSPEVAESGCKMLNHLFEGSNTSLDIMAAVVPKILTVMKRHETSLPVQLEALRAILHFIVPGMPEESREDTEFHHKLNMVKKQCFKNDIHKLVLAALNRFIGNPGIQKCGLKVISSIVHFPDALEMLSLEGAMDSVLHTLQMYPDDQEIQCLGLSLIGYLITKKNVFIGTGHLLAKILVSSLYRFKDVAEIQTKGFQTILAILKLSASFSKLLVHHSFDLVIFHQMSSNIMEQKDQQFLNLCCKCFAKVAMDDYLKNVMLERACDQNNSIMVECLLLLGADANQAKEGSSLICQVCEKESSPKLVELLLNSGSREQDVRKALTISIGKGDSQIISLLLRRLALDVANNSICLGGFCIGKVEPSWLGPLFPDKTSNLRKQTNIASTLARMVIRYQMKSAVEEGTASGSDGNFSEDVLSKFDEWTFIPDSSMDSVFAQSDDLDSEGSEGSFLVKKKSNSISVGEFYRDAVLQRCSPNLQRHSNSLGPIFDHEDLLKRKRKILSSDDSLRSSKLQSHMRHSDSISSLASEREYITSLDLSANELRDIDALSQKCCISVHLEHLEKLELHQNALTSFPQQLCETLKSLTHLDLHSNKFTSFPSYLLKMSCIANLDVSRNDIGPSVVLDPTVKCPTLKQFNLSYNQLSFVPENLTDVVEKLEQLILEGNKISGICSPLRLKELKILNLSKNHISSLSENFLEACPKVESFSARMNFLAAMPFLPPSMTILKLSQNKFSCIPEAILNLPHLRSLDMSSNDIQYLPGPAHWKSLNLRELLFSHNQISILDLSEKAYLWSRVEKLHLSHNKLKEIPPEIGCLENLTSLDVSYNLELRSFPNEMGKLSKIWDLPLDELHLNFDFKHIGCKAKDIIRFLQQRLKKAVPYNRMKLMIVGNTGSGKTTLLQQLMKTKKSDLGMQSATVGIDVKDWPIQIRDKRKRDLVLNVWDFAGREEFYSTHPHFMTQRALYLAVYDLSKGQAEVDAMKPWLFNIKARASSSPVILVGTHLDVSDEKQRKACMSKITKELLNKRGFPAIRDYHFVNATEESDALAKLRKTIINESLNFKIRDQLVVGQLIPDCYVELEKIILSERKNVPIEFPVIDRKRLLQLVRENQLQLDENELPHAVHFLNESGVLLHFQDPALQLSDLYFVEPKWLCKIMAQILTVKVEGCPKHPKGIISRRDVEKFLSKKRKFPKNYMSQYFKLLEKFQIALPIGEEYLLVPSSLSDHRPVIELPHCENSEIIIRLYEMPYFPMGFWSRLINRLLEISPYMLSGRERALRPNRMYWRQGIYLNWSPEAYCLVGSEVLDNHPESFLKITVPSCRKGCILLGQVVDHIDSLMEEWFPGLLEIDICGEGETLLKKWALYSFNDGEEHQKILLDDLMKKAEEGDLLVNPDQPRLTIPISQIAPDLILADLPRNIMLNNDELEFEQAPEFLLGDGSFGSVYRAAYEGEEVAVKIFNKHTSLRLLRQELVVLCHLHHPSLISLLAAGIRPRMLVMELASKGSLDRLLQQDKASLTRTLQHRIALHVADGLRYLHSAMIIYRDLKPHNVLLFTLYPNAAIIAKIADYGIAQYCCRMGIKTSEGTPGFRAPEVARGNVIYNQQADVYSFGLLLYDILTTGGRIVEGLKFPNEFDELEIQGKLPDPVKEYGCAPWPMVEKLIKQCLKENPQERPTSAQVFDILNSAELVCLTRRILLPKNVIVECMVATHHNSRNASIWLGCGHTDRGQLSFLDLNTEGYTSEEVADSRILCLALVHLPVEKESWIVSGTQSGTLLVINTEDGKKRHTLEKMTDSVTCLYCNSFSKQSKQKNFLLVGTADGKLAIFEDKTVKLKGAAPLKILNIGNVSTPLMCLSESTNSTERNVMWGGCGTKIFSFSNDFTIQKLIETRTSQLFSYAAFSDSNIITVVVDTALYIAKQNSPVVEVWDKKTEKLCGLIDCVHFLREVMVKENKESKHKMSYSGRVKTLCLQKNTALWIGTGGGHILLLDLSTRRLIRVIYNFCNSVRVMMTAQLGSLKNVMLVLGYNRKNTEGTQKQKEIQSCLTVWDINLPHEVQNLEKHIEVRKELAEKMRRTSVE
# T1 sequence (Q5S007 whole entry G2019S): as the sequence (Q5S007 whole entry) above, with G2019S counted along it
substance,measurement,setting,value
GSK3357679A,IC50,Flag-LRRK2[G2019S],0.34 nM
same,stimulation of basal mitophagy,[1],~2 fold
same,impact on 14-3-3 binding to LRRK2,LRRK2 14-3-3 binding,ablated
same,impact on basal mitophagy in LRRK2 knock-out cells,[2],neither GZD-824 or GSK3357679A impacted basal mitophagy
same,impact on Rab29 mediated recruitment of LRRK2 to the Golgi,[3],no impact
same,kinase selectivity (panel of 140 protein kinases),[4],highly selective
same,effect on Ser935 phosphorylation,[5],ablated
same,IC50 LRRK2 WT (100 µM ATP),"wild-type Flag-LRRK2; Nictide peptide substrate, value ± SD",sub-nanomolar potency
same,IC50,"wild-type Flag-LRRK2; read-out: IC50 LRRK2 WT (100 µM ATP), Nictide peptide substrate, value ± SD",0.3 nM
same,stimulation of basal mitophagy,[6],~2 fold
